Measured values from patent publication US20210002725A1, “METHODS FOR THE DIAGNOSIS OF METABOLIC DISORDERS USING EPIMETABOLIC SHIFTERS, MULTIDIMENSIONAL INTRACELLULAR MOLECULES, OR ENVIRONMENTAL INFLUENCES” (Berg LLC, priority 2009, published 2021).
Read-outs that look alike come from different tables or passages of the source.

Legend:
variety of cell types = assay: Western blot analysis (Bcl-xL, Vimentin, oxidative phosphorylation complexes, mitochondrial membrane integrity proteins); assay type: cell-based; settings: 50 or 100 μM Q10
Protocol: Approximately 50 μg of protein were assayed per sample by immunoblotting. All treatments were run in triplicate with controls. […] The primary antibodies were incubated overnight at 4 degrees C. in a 5% BSA and TBST solution. Secondary antibodies were incubated for one hour at 4 degrees. All antibodies were purchased from Cell Signaling Technology. Antibodies were used at a ratio of 1:1000, with the exception of βActin at a ratio of 1:5000. Blots were developed and results were quantified using the NIH Java based densitometer analysis software Image J. All blots were also probed for and normalized to their respective βActin expression.
The first experiment processed and evaluated by Western blot and 2-D gel electrophoresis was carried out on the skin cancer cell line SKMEL-28.
A variety of cell types were evaluated by Western blot analysis against an antibody for Bcl-xL (FIG. 14), an antibody for Vimentin (FIG. 15), a series of antibodies for mitochondrial oxidative phosphorylation function (FIGS. 16-21) and against a series of antibodies related to mitochondrial membrane integrity (FIGS. 22-27).

[1] = cited from earlier work
HDFa cells = assay: SeaHorse XF analyzer OCR and ECAR; assay type: cell-based, human; settings: normoxic and hypoxic conditions, 5.5 mM and 22 mM glucose
Excerpt: Environmental influencers (e.g., MIMs or Epi-shifters) may also be identified by changes in cellular energetics. One example of the measurement of cellular energetics are the real-time measures of the consumption of molecular oxygen and/or the change in pH of the media of a cell culture. For example, the ability of a potential epi-shifter to modulate the metabolic state of a cell may be analyzed using, for example, the XF24 Analyzer (Seahorse, Inc.). This technology allows for real time detection of oxygen and pH changes in a monolayer of cells in order to evaluate the bioenergetics of a cell microenvironment. The XF24 Analyzer measures and compares the rates of oxygen consumption (OCR), which is a measure of aerobic metabolism, and extracellular acidification (ECAR), which is a measure of glycolysis, both key indicators of cellular energetics.
(SeaHorse Biosciences Inc, North Billerica, Mass.).
In this experiment, the OCR and extracellular acidification rate (ECAR) in normal cells lines were obtained in the presence and absence of CoQ10 to determine baseline values. It was observed that in its native nutrient environment, the basal OCR rates in normal cells lines are different, and are usually a function of the physiological roles of the cells in the body.
For example, one set of experiments were conducted using the non-cancerous cell line HDFa, which is a human adult dermal fibroblast cell line. Fibroblasts are cells that primarily synthesize and secrete extracellular matrix (ECM) components and collagen that form the structural framework (stroma) for tissues. In addition, fibroblasts are known to serve as tissue ambassadors of numerous functions such as wound healing and localized immnomodulation. Under normal physiological conditions, energy requirements in normal fibroblasts are met using a combination of glycolysis and oxidative phosphorylation—the glycolysis providing the necessary nutrients for synthesis of ECM.
FIGS. 29 and 30 describe the OCR in HDFa and HASMC cells grown in physiologically normal glucose (about 4.6 mM) and high glucose (hyperglycemic) conditions.

For `COC1=C(OC)C(=O)C(C/C=C(\C)CC/C=C(\C)CC/C=C(\C)CC/C=C(\C)CC/C=C(\C)CC/C=C(\C)CC/C=C(\C)CC/C=C(\C)CC/C=C(\C)CCC=C(C)C)=C(C)C1=O` [Q10, Coenzyme Q10], the “levels of examined proteins (Western blot)” value (variety of cell types) is given as “several of the examined proteins were upregulated or downregulated”, the “CoQ10 in the reduced form” value ([1]; blood (plasma), Bhagavan) is given as ~96% and the “CoQ10 in the reduced form” value ([1]; heart) is given as “about 61%”. The “molecule found in the reduced form (Q10H2)” value ([1]; human plasma, Ruiz-Jimenez 2007) was 90%, the “CoQ10 in the reduced form” value ([1]; intestine) was ~95% and the “CoQ10 in the reduced form” value ([1]; kidney) was ~75%. For the same molecule, the “CoQ10 in the reduced form” value ([1]; liver) was ~95%, the “CoQ10 in the reduced form” value ([1]; muscle) was ~65% and the ECAR values (HDFa cells) was “minimal influence on ECAR values”.
